In US20100314318A1, “HALOGENATED AMIDE BIOCIDAL COMPOUNDS AND METHODS FOR TREATING WATER SYSTEMS AT NEAR NEUTRAL TO HIGH PH” (priority 2009, published 2010):
Like-named read-outs stand apart in the source and are kept apart here.

Key:
[1] = Stability against hydrolysis in buffered dilute solutions, HPLC
[2] = system: Pseudomonas aeruginosa ATCC 10145; test: Bactericidal efficacy in synthetic salts water pH 8.5; format: cell-based; conditions: for Dosage required for 3 log10 bacterial reduction (ppm, active): 37° C.
Description: A sterile synthetic salts water is prepared and inoculated with Pseudomonas aeruginosa ATCC 10145 at about 10^7 CFU/mL. The synthetic water is prepared to contain (in 1 liter deionized water) the following: CaCl2, 0.2203 g; MgSO4, 0.1847 g; and NaHCO3, 0.2033 g. The final pH of the synthetic cooling water is adjusted to 8.5. Aliquots of the cell suspension are then treated with biocides at selected dosage levels. The same contaminated water sample without biocide is used as control. After incubating at 37° C. for different time intervals, numbers of surviving bacteria are enumerated using a serial dilution method. After incubating for 24 hr, all cell suspensions are reinoculated with Pseudomonas aeruginosa ATCC 10145 at 10^6 CFU/mL. The efficacy results for […]

Free Legionella = format: cell-based, Legionella pneumophila
[3] = system: bacteria isolated from field; test: Efficacy in semi-synthetic metal working fluid; format: cell-based; conditions: room temperature, MWF
bacterial consortium = test: Preservation of calcium carbonate slurry Hydrocarb 90 (pH 8.7); conditions: for change in populations of bacteria (FIG. 6): 5 ppm; for change in populations of bacteria (FIG. 6) / decrease in numbers of bacteria (FIG. 6): 24-hr contact; for decrease in numbers of bacteria (FIG. 6): 10 ppm
[4] = system: four bacterial species (Pseudomonas aeruginosa, Klebsiella pneumoniae, Bacillus subtilis, Staphylococcus aureus); test: Preservation of kaolin slurry Kaolux HS (pH 6.6); format: cell-based, bacteria
Text: Two samples of kaolin slurries (Kaolux HS [particle size finer than 2 microns, 83.4%; 64.9% solids; pH 6.6] and Kaogloss [particle size finer than 2 microns, 90.7%; 70.1% solids; pH 6.3]), are obtained from Thiele Kaolin Company, Sandersville, Ga. Samples of the two slurries are inoculated with four bacterial species (described in Example 8), sampled to confirm the initial size of the bacterial community, and treated with selected concentrations of DBMAL. Samples for bacterial enumeration are collected after 24 hr and 48 hr incubation periods.

[5] = system: amoeba (Acanthamoeba polypohaga) fed Legionella pneumophila (AfLp); format: cell-based; conditions: for Active concentration (ppm) required for complete kill (6 log reduction): Amoeba fed Legionella
[6] = system: bacteria in Cooling Tower water; test: Efficacy in cooling tower water sample (about pH 8.3), serial dilution count; format: cell-based
[7] = system: bacteria isolated from Cooling Tower water; test: Efficacy in sterile artificial Cooling Tower water (approx. pH 8.5); format: cell-based; conditions: 30° C.
[8] = system: mixed species consortium of bacteria; test: Preservation of 10% CaCO3 suspensions; conditions: 10 ppm, pH 7.0, 8.0, 9.0
[9] = going from pH 6 to pH 8.9; cited from earlier work
[10] = 48 hr, pH 8.5, reinoculated after 24 hr
[11] = 12.5 ppm active, 48 hrs, re-inoculated
[12] = 12.5 ppm active, 72 hrs, re-inoculated
[13] = 12.5 ppm active, 96 hrs, re-inoculated
[14] = 25 ppm active, 48 hrs, re-inoculated
[15] = 25 ppm active, 72 hrs, re-inoculated
[16] = 25 ppm active, 96 hrs, re-inoculated
[17] = 50 ppm active, 48 hrs, re-inoculated
[18] = 50 ppm active, 72 hrs, re-inoculated
[19] = 50 ppm active, 96 hrs, re-inoculated

## NC(=O)C(Br)(Br)C(N)=O [DBMAL, 2,2-Dibromomalonamide]
[1]; pH 6.9, T = 30 C., 48 hours
  Calculated Percent Reduction of the Active Ingredient: 0%
[1]; pH 6.9, T = 30 C., 72 hours
  Calculated Percent Reduction of the Active Ingredient: 0%
[1]; pH 8, T = −1 C., 48 hours
  Calculated Percent Reduction of the Active Ingredient: 0%
[1]; pH 8, T = −1 C., 72 hours
  Calculated Percent Reduction of the Active Ingredient: 0%
[1]; pH 8, T = −1 C., 96 hours
  Calculated Percent Reduction of the Active Ingredient: 0%
[1]; pH 9, T = −1 C., 48 hours
  Calculated Percent Reduction of the Active Ingredient: 21%
[1]; pH 9, T = −1 C., 72 hours
  Calculated Percent Reduction of the Active Ingredient: 12%
[1]; pH 9, T = −1 C., 96 hours
  Calculated Percent Reduction of the Active Ingredient: 24%
[2]; 1 hr, pH 8.5
  Dosage required for 3 log10 bacterial reduction (ppm, active): 14.8 ppm
[2]; 3 hr, pH 8.5
  Dosage required for 3 log10 bacterial reduction (ppm, active): 6.6 ppm
[2]; 24 hr, pH 8.5
  Dosage required for 3 log10 bacterial reduction (ppm, active): 6.6 ppm
[2]; [10]
  Dosage required for 3 log10 bacterial reduction (ppm, active): 6.6 ppm
[2]; after 48 hour incubation and rechallenge with P. aeruginosa cells
  long term bactericidal efficacy compared with DBNPA: better than DBNPA
Free Legionella; 2 hours
  Active concentration (ppm) required for complete kill (6 log reduction): 6.25 ppm
Free Legionella; 24 hours
  Active concentration (ppm) required for complete kill (6 log reduction): 1.56 ppm
[3]; 2 h
  Minimum dosage (ppm, active) required for at least 3 log10 reduction in bacterial counts: 57 ppm
[3]; 4 h
  Minimum dosage (ppm, active) required for at least 3 log10 reduction in bacterial counts: 44 ppm
[3]; 24 h
  Minimum dosage (ppm, active) required for at least 3 log10 reduction in bacterial counts: 44 ppm
[3]; 48 h
  Minimum dosage (ppm, active) required for at least 3 log10 reduction in bacterial counts: 34 ppm
[3]; 72 h
  Minimum dosage (ppm, active) required for at least 3 log10 reduction in bacterial counts: 26 ppm
[3]; 96 h
  Minimum dosage (ppm, active) required for at least 3 log10 reduction in bacterial counts: 34 ppm
Bacterial consortium
  change in populations of bacteria (FIG. 6): decrease relatively little
  decrease in numbers of bacteria (FIG. 6): more than 2.5 orders of magnitude
Bacterial consortium; 20 ppm DBMAL, 24-hr contact time
  difference in numbers of bacteria versus samples with 50 ppm DBNPA (FIG. 7): approximately one-quarter
Bacterial consortium; single dose of 20 ppm, 24-hr contact time
  single dose efficacy comparison (FIG. 7): as effective as 50 ppm DBNPA or 16 ppm CMIT
[4]; 100 ppm to 150 ppm, 48 hr contact time
  change in numbers of viable bacteria (FIG. 3): decrease slightly
[4]; 175 ppm
  decrease in viable bacteria (FIG. 3): approximately one
[4]; concentrations higher than 175 ppm
  reduction in viable bacteria (FIG. 3): at least five
[5]; 2 hours
  Active concentration (ppm) required for complete kill (6 log reduction): 12.5 ppm
[5]; 24 hours
  Active concentration (ppm) required for complete kill (6 log reduction): 3.12 ppm
[5]; corresponding time points (2 and 24 hours)
  level needed for 6 log kill of AfLp relative to that needed for free cells: about twice
[6]; 12.5 ppm active, 1 hr
  Bacterial log10 reduction after biocide addition: 1.2 log10
[6]; [11]
  Bacterial log10 reduction after biocide addition: 5.2 log10
[6]; [12]
  Bacterial log10 reduction after biocide addition: 1.2 log10
[6]; [13]
  Bacterial log10 reduction after biocide addition: 0.8 log10
[6]; 25 ppm active, 1 hr
  Bacterial log10 reduction after biocide addition: 4.3 log10
[6]; 25 ppm active, 3 hr
  Bacterial log10 reduction after biocide addition: >=5.7 log10
[6]; 25 ppm active, 24 hrs
  Bacterial log10 reduction after biocide addition: >=6.3 log10
[6]; [14]
  Bacterial log10 reduction after biocide addition: 6.0 log10
[6]; [15]
  Bacterial log10 reduction after biocide addition: 3.0 log10
[6]; [16]
  Bacterial log10 reduction after biocide addition: 3.2 log10
[6]; 50 ppm active, 1 hr
  Bacterial log10 reduction after biocide addition: >=5.3 log10
[6]; 50 ppm active, 3 hr
  Bacterial log10 reduction after biocide addition: 5.5 log10
[6]; 50 ppm active, 24 hrs
  Bacterial log10 reduction after biocide addition: >=6.3 log10
[6]; [17]
  Bacterial log10 reduction after biocide addition: >=6.3 log10
[6]; [18]
  Bacterial log10 reduction after biocide addition: 3.8 log10
[6]; [19]
  Bacterial log10 reduction after biocide addition: 4.2 log10
[6]; same active concentration of 12.5 ppm
  duration of effectiveness (>3 log10 killing) compared with DBNPA: one day more
[6]; same active concentration of 50 ppm and 25 ppm
  duration of effectiveness (>3 log10 killing) compared with DBNPA: two days more
[7]; 1 h
  Minimum biocide dosage (ppm, active) needed for at least 3 log10 bacterial reduction: 15.0 ppm
[7]; 3 h
  Minimum biocide dosage (ppm, active) needed for at least 3 log10 bacterial reduction: 11.0 ppm
[7]; 24 h
  Minimum biocide dosage (ppm, active) needed for at least 3 log10 bacterial reduction: 5.0 ppm
[7]; 48 h, reinoculated
  Minimum biocide dosage (ppm, active) needed for at least 3 log10 bacterial reduction: 5.0 ppm
[7]; 72 h, reinoculated
  Minimum biocide dosage (ppm, active) needed for at least 3 log10 bacterial reduction: 5.0 ppm
[7]; 96 h, reinoculated
  Minimum biocide dosage (ppm, active) needed for at least 3 log10 bacterial reduction: 15.0 ppm
[8]; 2-hr contact
  bacterial counts (FIG. 5): increased inhibition of the bacteria at pH 9.0 versus pH 7.0 and 8.0
[8]; 24 hr contact, limit of detection
  bacterial counts (FIG. 5): 1.0 log10

## N#CC(Br)(Br)C(N)=O [DBNPA, 2,2-Dibromo-3-nitrilopropionamide]
[1]; pH 6.9, T = 30 C., 0 hours
  level of DBMAL or DBNPA remaining (HPLC): 3991
[1]; pH 6.9, T = 30 C., 2 hours
  level of DBMAL or DBNPA remaining (HPLC): 4155
[1]; pH 6.9, T = 30 C., 24 hours
  level of DBMAL or DBNPA remaining (HPLC): 2557
[1]; pH 6.9, T = 30 C., 48 hours
  level of DBMAL or DBNPA remaining (HPLC): 1361
[1]; pH 6.9, T = 30 C., 72 hours
  level of DBMAL or DBNPA remaining (HPLC): 918
[1]; pH 6.9, T = 30 C., 96 hours
  level of DBMAL or DBNPA remaining (HPLC): 658
[1]; pH 8, T = −1 C., 0 hours
  level of DBMAL or DBNPA remaining (HPLC): 4068
[1]; pH 8, T = −1 C., 2 hours
  level of DBMAL or DBNPA remaining (HPLC): 3998
[1]; pH 8, T = −1 C., 24 hours
  level of DBMAL or DBNPA remaining (HPLC): 3506
[1]; pH 8, T = −1 C., 48 hours
  level of DBMAL or DBNPA remaining (HPLC): 3578
[1]; pH 8, T = −1 C., 72 hours
  level of DBMAL or DBNPA remaining (HPLC): 3149
[1]; pH 8, T = −1 C., 96 hours
  level of DBMAL or DBNPA remaining (HPLC): 3070
[1]; pH 9, T = −1 C., 0 hours
  level of DBMAL or DBNPA remaining (HPLC): 3842
[1]; pH 9, T = −1 C., 2 hours
  level of DBMAL or DBNPA remaining (HPLC): 2818
[1]; pH 9, T = −1 C., 24 hours
  level of DBMAL or DBNPA remaining (HPLC): 1256
[1]; pH 9, T = −1 C., 48 hours
  level of DBMAL or DBNPA remaining (HPLC): 659
[1]; pH 9, T = −1 C., 72 hours
  level of DBMAL or DBNPA remaining (HPLC): 363
[1]; pH 9, T = −1 C., 96 hours
  level of DBMAL or DBNPA remaining (HPLC): 239
[2]; 1 hr, pH 8.5
  Dosage required for 3 log10 bacterial reduction (ppm, active): 2.9 ppm
[2]; 3 hr, pH 8.5
  Dosage required for 3 log10 bacterial reduction (ppm, active): 2.9 ppm
[2]; 24 hr, pH 8.5
  Dosage required for 3 log10 bacterial reduction (ppm, active): 4.4 ppm
[2]; [10]
  Dosage required for 3 log10 bacterial reduction (ppm, active): 50.0 ppm
[3]; 2 h
  Minimum dosage (ppm, active) required for at least 3 log10 reduction in bacterial counts: 42 ppm
[3]; 4 h
  Minimum dosage (ppm, active) required for at least 3 log10 reduction in bacterial counts: 32 ppm
[3]; 24 h
  Minimum dosage (ppm, active) required for at least 3 log10 reduction in bacterial counts: 42 ppm
[3]; 48 h
  Minimum dosage (ppm, active) required for at least 3 log10 reduction in bacterial counts: 55 ppm
[3]; 72 h
  Minimum dosage (ppm, active) required for at least 3 log10 reduction in bacterial counts: 55 ppm
[3]; 96 h
  Minimum dosage (ppm, active) required for at least 3 log10 reduction in bacterial counts: 55 ppm
Bacterial consortium
  change in populations of bacteria (FIG. 6): decrease relatively little
  decrease in numbers of bacteria (FIG. 6): approximately 0.5 orders of magnitude
[6]; 12.5 ppm active, 1 hr
  Bacterial log10 reduction after biocide addition: 5.3 log10
[6]; [11]
  Bacterial log10 reduction after biocide addition: 1.5 log10
[6]; [12]
  Bacterial log10 reduction after biocide addition: 0.7 log10
[6]; [13]
  Bacterial log10 reduction after biocide addition: 0.3 log10
[6]; 25 ppm active, 1 hr
  Bacterial log10 reduction after biocide addition: 5.2 log10
[6]; 25 ppm active, 3 hr
  Bacterial log10 reduction after biocide addition: >=5.7 log10
[6]; 25 ppm active, 24 hrs
  Bacterial log10 reduction after biocide addition: >=6.3 log10
[6]; [14]
  Bacterial log10 reduction after biocide addition: 4.2 log10
[6]; [15]
  Bacterial log10 reduction after biocide addition: 1.0 log10
[6]; [16]
  Bacterial log10 reduction after biocide addition: 0.7 log10
[6]; 50 ppm active, 1 hr
  Bacterial log10 reduction after biocide addition: >=5.3 log10
[6]; 50 ppm active, 3 hr
  Bacterial log10 reduction after biocide addition: >=5.7 log10
[6]; 50 ppm active, 24 hrs
  Bacterial log10 reduction after biocide addition: >=6.3 log10
[6]; [17]
  Bacterial log10 reduction after biocide addition: 6.1 log10
[6]; [18]
  Bacterial log10 reduction after biocide addition: 1.0 log10
[6]; [19]
  Bacterial log10 reduction after biocide addition: 0.8 log10
[9]
  factor by which rate of disappearance increases: about 450
[7]; 1 h
  Minimum biocide dosage (ppm, active) needed for at least 3 log10 bacterial reduction: 8.0 ppm
[7]; 3 h
  Minimum biocide dosage (ppm, active) needed for at least 3 log10 bacterial reduction: 8.0 ppm
[7]; 24 h
  Minimum biocide dosage (ppm, active) needed for at least 3 log10 bacterial reduction: 11.0 ppm
[7]; 48 h, reinoculated
  Minimum biocide dosage (ppm, active) needed for at least 3 log10 bacterial reduction: 15.0 ppm
[7]; 72 h, reinoculated
  Minimum biocide dosage (ppm, active) needed for at least 3 log10 bacterial reduction: 15.0 ppm
[7]; 96 h, reinoculated
  Minimum biocide dosage (ppm, active) needed for at least 3 log10 bacterial reduction: 21.0 ppm
